Data from US20230078764A1 (Yumanity Therapeutics, Inc., priority 2019, published 2023).
pIC50: −log10 of the molar value. Like-named read-outs stand apart in the source and are kept apart here.

Columns and labels:
Format in all cases: cell-based
human SCD1 [1] = target: human SCD1 (Homo sapiens, UniProt O00767); assay: Growth inhibition of yeast strain expressing human SCD1 as sole desaturase (OLE1 deleted), OD600 readout
human SCD5 [2] = target: human SCD5 (Homo sapiens, UniProt Q86SK9); assay: Growth inhibition of yeast strain expressing human SCD5 as sole desaturase (OLE1 deleted), OD600 readout
human SCD1 [3] = target: T1, human SCD1 (Homo sapiens, UniProt O00767); assay: Growth inhibition of yeast strain expressing human SCD1 as sole desaturase (OLE1 deleted), OD600 readout
T1 construct: expressed in transfected cells; host or cells: yeast strain with OLE1 deleted, plasmid-borne human SCD1 (selected in SD-Ura)
T1 sequence (O00767 1-359): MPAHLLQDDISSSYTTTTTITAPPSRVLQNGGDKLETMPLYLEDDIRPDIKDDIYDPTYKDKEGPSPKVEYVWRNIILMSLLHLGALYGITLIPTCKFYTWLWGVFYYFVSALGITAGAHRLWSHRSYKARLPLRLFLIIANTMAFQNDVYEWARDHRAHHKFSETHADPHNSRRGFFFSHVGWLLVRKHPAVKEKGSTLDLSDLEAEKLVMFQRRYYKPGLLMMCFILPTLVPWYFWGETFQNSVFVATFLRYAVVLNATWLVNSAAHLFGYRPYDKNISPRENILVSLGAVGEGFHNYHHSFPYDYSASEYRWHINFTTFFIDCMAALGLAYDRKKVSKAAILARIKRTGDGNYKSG

human SCD5 [4] = target: T2, human SCD5 (Homo sapiens, UniProt Q86SK9); assay: Growth inhibition of yeast strain expressing human SCD5 as sole desaturase (OLE1 deleted), OD600 readout
T2 construct: expressed in transfected cells; host or cells: yeast strain with OLE1 deleted, plasmid-borne human SCD5 (selected in SD-Ura)
T2 sequence (Q86SK9 1-330): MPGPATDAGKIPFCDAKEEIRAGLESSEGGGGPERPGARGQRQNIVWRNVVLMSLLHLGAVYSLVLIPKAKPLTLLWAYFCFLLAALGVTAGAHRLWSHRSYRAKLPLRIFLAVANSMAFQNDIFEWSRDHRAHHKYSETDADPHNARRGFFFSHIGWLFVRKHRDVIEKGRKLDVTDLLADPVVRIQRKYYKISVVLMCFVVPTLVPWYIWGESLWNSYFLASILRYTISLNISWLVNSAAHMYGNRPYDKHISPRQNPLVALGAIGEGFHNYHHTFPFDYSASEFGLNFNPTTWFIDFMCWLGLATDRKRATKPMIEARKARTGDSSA

[5] = yeast strain expressing human SCD1 as sole desaturase, growth (OD600) after 40 h at 30° C., read-out: SCD1 IC50
[6] = yeast strain expressing human SCD5 as sole desaturase, growth (OD600) after 40 h at 30° C., read-out: SCD5 IC50

| pIC50 (human SCD1 [3]; [5]) | pIC50 (human SCD5 [4]; [6]) | SMILES | other results |
| --- | --- | --- | --- |
|  |  | CN1N=C(C(=O)Nc2ncc(Cc3ccccc3)s2)CCC1=O | pIC50 (human SCD1 [1]): 6.23; pIC50 (human SCD5 [2]): 6.72 |
| < 4.35 |  | CN1N=C(C(=O)Nc2ncc(Cc3cccc(Cl)c3)cn2)CCC1=O [Compound 175, N-(5-(3-chlorobenzyl)pyrimidin-2-yl)-1-methyl-6-oxo-1,4,5,6-tetrahydropyridazine-3-carboxamide] | pIC50 (human SCD5 [2]): 4.70 |
| 6.82 | 8.00 | Cn1cc(C(=O)Nc2ccc(Cc3cccc(Cl)c3)cn2)ccc1=O [Example 48, N-(5-(3-chlorobenzyl)pyridin-2-yl)-1-methyl-6-oxo-1,6-dihydropyridine-3-carboxamide] |  |
| < 4.35 | 5.18 | CN1N=C(C(=O)Nc2ccc(CC3CCCCC3)cn2)CCC1=O [Compound 370] |  |
| < 4.35 | < 4.35 | Cc1ccc(Cc2ccc(NC(=O)C3=NN(C)C(=O)CC3)nc2)cn1 [Compound 435] |  |
|  |  | Cn1cc(C(=O)Nc2ccc(Cc3cc(F)cc(C#N)c3)cn2)ccc1=O [Example 25, N-(5-(3-cyano-5-fluorobenzyl)pyridin-2-yl)-1-methyl-6-oxo-1,6-dihydropyridine-3-carboxamide] | pIC50 (human SCD1 [3]; SCD1 IC50): 5.39; pIC50 (human SCD5 [4]; SCD5 IC50): 6.28 |
| 6.66 | 7.52 | CN1N=C(C(=O)Nc2ccc(Cc3ccc(Cl)c(Cl)c3)cn2)CCC1=O [Example 20, N-(5-(3,4-dichlorobenzyl)pyridin-2-yl)-1-methyl-6-oxo-1,4,5,6-tetrahydropyridazine-3-carboxamide] |  |
| 6.02 | 6.11 | CC(=O)c1ccc(C(=O)Nc2ccc(Cc3ccc(F)c(F)c3)cn2)nn1 [Compound 516] |  |
| 7.77 | 8.00 | Cn1cc(C(=O)Nc2ccc(Cc3ccc(F)c(F)c3Cl)cn2)ccc1=O [Compound 572] |  |
| 6.55 | 6.49 | O=C(Nc1ccc(Cc2cccc(Cl)c2)cn1)c1ccc([C@@H](O)CO)nc1 [Compound 605] |  |
| 6.49 | 8.00 | N#Cc1cnc(NC(=O)c2ccc(Cc3cccc(F)c3)cn2)nc1 [Compound 627] |  |
| < 4.35 | 6.02 | Cn1cc(C(=O)Nc2ccc(Cc3cncc(Cl)c3)cn2)ccc1=O [Compound 276] |  |
| 4.78 | 6.18 | Cn1nc(C(=O)Nc2ccc(Cc3cc(F)cc(F)c3)cn2)cc1O [Compound 325] |  |
| < 4.35 | 6.96 | Cc1cc(C(=O)Nc2ccc(Cc3ccc(F)c(F)c3)cn2)nn(C)c1=O [Compound 523] |  |
| 5.85 | < 4.35 | O=C(O)c1ccc(C(=O)Nc2ccc(Cc3cccc(Cl)c3)cn2)nn1 [Compound 451] |  |
| 4.81 | 6.37 | Cn1nc(C(=O)Nc2ccc(Cc3cccc(F)c3)cn2)ccc1=O [Example 45, N-(5-(3-fluorobenzyl)pyridin-2-yl)-1-methyl-6-oxo-1,6-dihydropyridazine-3-carboxamide] |  |
| < 4.35 | 5.29 | Cn1cc(NC(=O)c2ccc(Cc3cccc(Cl)c3)nn2)ccc1=O [Compound 189, 6-(3-chlorobenzyl)-N-(1-methyl-6-oxo-1,6-dihydropyridin-3-yl)pyridazine-3-carboxamide] |  |
| 6.74 | 8.00 | N#Cc1cnc(C(=O)Nc2ccc(Cc3cc(F)cc(Cl)c3)cn2)cn1 [Compound 661] |  |
| 5.71 | < 4.35 | COC(=O)c1ccc(C(=O)Nc2ccc(Cc3cccc(Cl)c3)cn2)nn1 [Compound 454] |  |
| < 4.35 | < 4.35 | CN1N=C(C(=O)Nc2ccc(Cc3ccc(C4CC4)nc3)cn2)CCC1=O [Compound 392] |  |
| < 4.35 | < 4.35 | Cn1nc(NC(=O)N[C@H]2CC[C@H](Cc3cccc(Cl)c3)CC2)ccc1=O [Compound 434] |  |
| 5.57 | 7.70 | Cn1cc(C(=O)Nc2ccc(Cc3cc(F)ccc3F)cn2)ccc1=O [Compound 565] |  |
| < 4.35 | < 4.35 | CN1N=C(C(=O)Nc2ccc(CN3CCC(C)(C)CC3)cn2)CCC1=O [Compound 412] |  |
| < 4.35 | < 4.35 | CO[C@@H]1CN[C@H](C(=O)Nc2ccc(Cc3cccc(F)c3)cn2)C1 [Compound 447] |  |
| 5.76 | 6.24 | Cn1nc(C(=O)Nc2ccc(Cc3cccc(F)c3)cc2)ccc1=O [Compound 4, N-(4-(3-fluorobenzyl)phenyl)-1-methyl-6-oxo-1,6-dihydropyridazine-3-carboxamide] |  |
| 7.05 | 6.92 | CN1N=C(C(=O)Nc2ncc(Cc3cccc(C(F)(F)F)c3)s2)CCC1=O [Compound 340] |  |
| 8.00 | 8.00 | O=C(Nc1ccc(Cc2cc(F)cc(Cl)c2)cn1)c1ccc(CO)nc1 [Compound 111, N-(5-(3-chloro-5-fluorobenzyl)pyridin-2-yl)-6-(hydroxymethyl)nicotinamide] |  |
| < 4.35 | 5.80 | C=C(OCC)c1ccc(C(=O)Nc2ccc(Cc3cccc(Cl)c3)cn2)cn1 [Compound 320] |  |
| 6.28 | 7.85 | Cc1ccc(C(=O)Nc2ccc(Cc3cc(F)cc(F)c3)cn2)nn1 [Compound 484] |  |
| 4.75 | < 4.35 | CN1N=C(C(=O)Nc2cnc(Cc3cccc(F)c3)s2)CCC1=O [Compound 388] |  |

| SMILES | pIC50 (human SCD1 [3]; [5]) | pIC50 (human SCD5 [4]; [6]) | other results |
| --- | --- | --- | --- |
| CN1N=C(C(=O)Nc2ncc(Cc3cccc(F)c3)s2)CCC1=O [Compound 220] | 6.18 | 6.28 |  |
| CCn1ccc(C(=O)Nc2ccc(Cc3cc(F)cc(F)c3)cn2)n1 [Compound 97, N-(5-(3,5-difluorobenzyl)pyridin-2-yl)-1-ethyl-1H-pyrazole-3-carboxamide] | 5.96 | 7.70 |  |
